Assay [1] deals with T1, Recombinant purified human JAK3 (Homo sapiens, UniProt P52333).
T1 construct: purchased Promega V9441
T1 sequence (P52333 1-1124): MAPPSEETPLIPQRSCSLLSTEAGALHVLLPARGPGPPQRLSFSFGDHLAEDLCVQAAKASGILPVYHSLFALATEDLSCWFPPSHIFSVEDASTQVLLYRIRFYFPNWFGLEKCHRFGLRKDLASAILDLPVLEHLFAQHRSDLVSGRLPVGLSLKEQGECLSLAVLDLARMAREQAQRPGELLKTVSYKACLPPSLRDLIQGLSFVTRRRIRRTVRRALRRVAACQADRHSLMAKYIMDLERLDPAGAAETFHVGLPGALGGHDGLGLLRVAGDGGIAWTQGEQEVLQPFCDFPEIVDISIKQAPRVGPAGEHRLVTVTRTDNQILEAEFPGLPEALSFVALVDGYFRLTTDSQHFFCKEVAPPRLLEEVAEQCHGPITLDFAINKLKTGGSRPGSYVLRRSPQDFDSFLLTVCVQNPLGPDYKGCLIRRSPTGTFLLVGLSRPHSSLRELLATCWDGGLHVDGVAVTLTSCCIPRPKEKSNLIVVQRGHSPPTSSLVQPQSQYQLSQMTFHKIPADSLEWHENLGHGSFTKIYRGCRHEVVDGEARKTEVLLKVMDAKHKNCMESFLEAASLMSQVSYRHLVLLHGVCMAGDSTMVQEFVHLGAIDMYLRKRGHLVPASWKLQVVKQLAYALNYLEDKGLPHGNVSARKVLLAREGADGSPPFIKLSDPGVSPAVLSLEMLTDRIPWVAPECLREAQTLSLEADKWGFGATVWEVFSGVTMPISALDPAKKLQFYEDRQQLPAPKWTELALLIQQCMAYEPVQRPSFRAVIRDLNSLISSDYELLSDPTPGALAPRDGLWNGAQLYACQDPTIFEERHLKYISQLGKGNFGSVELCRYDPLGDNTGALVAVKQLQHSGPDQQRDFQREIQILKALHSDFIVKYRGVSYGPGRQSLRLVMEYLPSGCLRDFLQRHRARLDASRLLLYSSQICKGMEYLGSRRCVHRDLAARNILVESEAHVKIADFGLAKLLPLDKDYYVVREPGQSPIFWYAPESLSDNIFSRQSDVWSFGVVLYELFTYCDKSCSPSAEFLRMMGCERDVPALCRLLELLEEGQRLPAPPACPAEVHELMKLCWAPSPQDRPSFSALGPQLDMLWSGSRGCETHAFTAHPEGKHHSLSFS
As to the kind of experiment: JAK3 kinase inhibitory activity, ADP-Glo kinase assay (Promega V9441). The conditions noted are these: ATP 5 uM, 4 ng JAK3 per reaction, 1 hour 30 °C, chemiluminescence. Format: biochemical. The method, boiled down:
(§1)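 Recombinant human kinases in Tris pH 7.5 buffer with MgCl2, BSA and DTT (MnCl2 added for BTK), 4 ng JAK3 or 8 ng BTK per reaction. Poly(Glu4,Tyr1) 0.2 µg/µL with 5 µM (JAK3) or 10 µM (BTK) ATP, 1% DMSO, 1 h at 30 °C. ADP-Glo luminescence used to derive IC50.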
On the technique in general: ADP-Glo turns the ADP formed in a reaction into a luminescent signal.

Assay [2] has as its target T2, Recombinant purified human BTK (Homo sapiens, UniProt Q06187).
T2 construct: purchased Promega V9071
Description: BTK kinase inhibitory activity, ADP-Glo kinase assay (Promega V9071). The conditions noted are these: ATP 10 uM, 8 ng BTK per reaction, 1 hour 30 °C, chemiluminescence. In kind it is biochemical. The method, boiled down:
as §1

The values that follow come from patent publication EP3478687B1 (Daewoong Pharmaceutical Co., Ltd., priority 2016, dated 2018).

SMILES strings stand for the structures.

The term IC50 denotes the concentration that gives 50% inhibition.

T2 sequence (Q06187 whole entry): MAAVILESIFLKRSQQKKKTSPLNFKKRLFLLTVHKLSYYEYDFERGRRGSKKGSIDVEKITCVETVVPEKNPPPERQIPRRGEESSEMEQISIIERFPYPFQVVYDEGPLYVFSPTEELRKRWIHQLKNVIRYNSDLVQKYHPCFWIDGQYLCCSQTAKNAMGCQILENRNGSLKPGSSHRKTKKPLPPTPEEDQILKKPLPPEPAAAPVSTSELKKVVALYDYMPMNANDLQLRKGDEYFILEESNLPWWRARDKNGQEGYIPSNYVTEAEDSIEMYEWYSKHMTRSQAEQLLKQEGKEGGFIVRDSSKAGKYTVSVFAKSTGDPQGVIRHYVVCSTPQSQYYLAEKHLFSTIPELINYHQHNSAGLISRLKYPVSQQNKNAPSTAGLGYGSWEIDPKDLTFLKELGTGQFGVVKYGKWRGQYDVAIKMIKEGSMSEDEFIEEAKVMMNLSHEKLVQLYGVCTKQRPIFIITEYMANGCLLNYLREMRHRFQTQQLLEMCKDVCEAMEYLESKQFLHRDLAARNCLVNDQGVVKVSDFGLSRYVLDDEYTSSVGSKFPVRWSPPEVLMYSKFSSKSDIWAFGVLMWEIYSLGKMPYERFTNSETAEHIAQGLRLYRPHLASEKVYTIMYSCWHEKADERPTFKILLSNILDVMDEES

Turning to `CCn1cc(Nc2nc(N[C@@H]3CCCN(C(=O)/C(C#N)=C/C4CC4)C3)c3c(F)c[nH]c3n2)cn1` [Example 182], the half-maximal inhibitory concentration (IC50) in assay [1] worked out at 2.3 nM; in assay [2] it was 2.1 nM.
For `CCn1cc(Nc2nc(N[C@H]3CN(C(=O)CCl)CC[C@H]3C)c3c(Cl)n[nH]c3n2)cn1` [Example 183, 2-chloro-1-((3R,4R)-3-((3-chloro-6-((1-ethyl-1H-pyrazol-4-yl)amino)-1H-pyrazolo [3,4-d]pyrimidin-4-yl)amino)-4-methylpiperidin-1-yl)ethan-1-one], in that order: 0.8 nM and 1.6 nM.
For `C=CC(=O)N1CCC[C@@H](Nc2nc(Nc3cnn(CC(F)F)c3)nc3[nH]nc(C)c23)C1` [Example 184, (R)-1-(3-((6-((1-(2,2-difluoroethyl)-1H-pyrazol-4-yl)amino)-3-methyl-1H-pyrazolo[3,4-d]pyrimidin-4-yl)amino)piperidin-1-yl)prop-2-en-1-one], in that order: 4.4 nM and 1.4 nM.
On to `C=CC(=O)N1CCC[C@@H](Nc2nc(Nc3cnn(CC)c3)nc3[nH]nc(C)c23)C1` [Example 185, (R)-1-(3-((6-((1-ethyl-1H-pyrazol-4-yl)amino)-3-methyl-1H-pyrazolo [3,4-d]pyrimidin-4-yl)amino)piperidin-1-yl)prop-2-en-1-one], for which the IC50 came to 15.1 nM in assay [1] and 2.1 nM in assay [2].
Turning to `C=CC(=O)N1CCC[C@@H](Nc2nc(Nc3cnn(CC(C)C)c3)nc3[nH]nc(C)c23)C1` [Example 186, (R)-1-(3-((6-((1-isobutyl-1H-pyrazol-4-yl)amino)-3-methyl-1H-pyrazolo [3,4-d]pyrimidin-4-yl)amino)piperidin-1-yl)prop-2-en-1-one], the IC50 stood at 18 nM in assay [1] and 1.6 nM in assay [2].
In the case of `C=CC(=O)N1CCC[C@@H](Nc2nc(Nc3cnn(C(C)(C)C)c3)nc3[nH]nc(C)c23)C1` [Example 187, (R)-1-(3-((6-((1-(tert-butyl)-1H-pyrazol-4-yl)amino)-3-methyl-1H-pyrazolo [3,4-d]pyrimidin-4-yl)amino)piperidin-1-yl)prop-2-en-1-one], the IC50 in assay [1] is 14.6 nM; in assay [2], 1.8 nM.
For `C=CC(=O)N1CCC[C@@H](Nc2nc(Nc3cnn(C4CC4)c3)nc3[nH]nc(C)c23)C1` [Example 188, (R)-1-(3-((6-((1-cyclopropyl-1H-pyrazol-4-yl)amino)-3-methyl-1H-pyrazolo[3,4-d]pyrimidin-4-yl)amino)piperidin-1-yl)prop-2-en-1-one], in that order: 23.5 nM and 2.9 nM.
For `C=CC(=O)N1CCC[C@@H](Nc2nc(Nc3cnn(CC)c3)nc3[nH]nc(SC)c23)C1` [Example 189, (R)-1-(3-((6-((1-ethyl-1H-pyrazol-4-yl)amino)-3-(methylthio)-1H-pyrazolo [3,4-d]pyrimidin-4-yl)amino)piperidin-1-yl)prop-2-en-1-one], the IC50 in assay [1] worked out at 3.4 nM; in assay [2], 0.721 nM.
For `C=CC(=O)N1CCC[C@@H](Nc2nc(Nc3cnn(CC(F)F)c3)nc3[nH]nc(SC)c23)C1` [Example 190, (R)-1-(3-((6-((1-(2,2-difluoroethyl)-1H-pyrazol-4-yl)amino)-3-(methylthio)-1H-pyrazolo[3,4-d]pyrimidin-4-yl)amino)piperidin-1-yl)prop-2-en-1-one], in that order: 2 nM and 0.76 nM.
The matching figures for `C=CC(=O)N1CCC[C@@H](Nc2nc(Nc3cnn(C)c3)nc3[nH]nc(SC)c23)C1` [Example 191, (R)-1-(3-((6-((1-methyl-1H-pyrazol-4-yl)amino)-3-(methylthio)-1H-pyrazolo [3,4-d]pyrimidin-4-yl)amino)piperidin-1-yl)prop-2-en-1-one]: 4.2 nM and 0.76 nM.
For `C=CC(=O)N1CCC[C@@H](Nc2nc(Nc3cnn(C(C)(C)C)c3)nc3[nH]nc(SC)c23)C1` [Example 192, (R)-1-(3-((6-((1-(tert-butyl)-1H-pyrazol-4-yl)amino)-3-(methylthio)-1H-pyrazolo [3,4-d]pyrimidin-4-yl)amino)piperidin-1-yl)prop-2-en-1-one], in that order: 3 nM and 0.726 nM.
Consider `C=CC(=O)N1CC[C@@H](F)[C@@H](Nc2nc(Nc3cnn(CC)c3)nc3[nH]nc(Cl)c23)C1` [Example 193, 1-((3S,4R)-3-((3-chloro-6-((1-ethyl-1H-pyrazol-4-yl)amino)-1H-pyrazolo[3,4-d]pyrimidin-4-yl)amino)-4-fluoropiperidin-1-yl)prop-2-en-1-one], for which the results for the 50% inhibitory concentration (IC50) in assay [1] and in assay [2] were 0.5 nM and 0.9 nM, respectively.
